Test results from patent US8574563B2 (Bristol-Myers Squibb Company, priority 2006, dated 2013).

Test system: HCV 1b-377-neo replicon cells
Test: HCV replicon assay, HCV 1b-377-neo replicon cells (1b FRET)
Format: cell-based, Hepatitis C virus genotype 1b
Conditions: Hepatitis C virus, HCV 1b-377-neo replicon cells; HCV 1b genotype; read-out: EC50 range against HCV 1b (Table 2, Range)
Summary of the method: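 Compounds were tested in genotype 1b subgenomic replicon cells carrying a neomycin marker, alongside a matched replicon line with an NS5A Y2065H substitution that confers resistance to a reference NS5A inhibitor.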

Row | Compound | EC50 [nM]
1 | CCN(CC)[C@@H](C(=O)N1CCC[C@H]1c1ncc(-c2ccc(-c3ccc(-c4cnc([C@@H]5CCCN5C(=O)[C@H](Cc5cn(C)cn5)NC(=O)OC)[nH]4)cc3)cc2)[nH]1)c1ccccc1 [cj-40, methyl ((1S)-2-((2S)-2-(5-(4′-(2-((2S)-1-((2R)-2-(diethylamino)-2-phenylacetyl)-2-pyrrolidinyl)-1H-imidazol-5-yl)-4-biphenylyl)-1H-imidazol-2-yl)-1-pyrrolidinyl)-1-((1-methyl-1H-imidazol-4-yl)methyl)-2-oxoethyl)carbamate] | 0.001 to 0.999
2 | COC(=O)N[C@@H](C)C(=O)N1CCC[C@H]1c1ncc(-c2ccc(-c3ccc(-c4cnc([C@@H]5CCCN5C(=O)[C@H](Cc5cn(C)cn5)NC(=O)OC)[nH]4)cc3)cc2)[nH]1 [cj-41, methyl ((1S)-2-((2S)-2-(5-(4′-(2-((2S)-1-(N-(methoxycarbonyl)-L-alanyl)-2-pyrrolidinyl)-1H-imidazol-5-yl)-4-biphenylyl)-1H-imidazol-2-yl)-1-pyrrolidinyl)-1-((1-methyl-1H-imidazol-4-yl)methyl)-2-oxoethyl)carbamate] | 0.001 to 0.999
3 | COC(=O)N[C@@H](Cc1cn(C)cn1)C(=O)N1CCC[C@H]1c1ncc(-c2ccc(-c3ccc(-c4cnc([C@@H]5CCCN5C(=O)[C@@H](NC(=O)OC)C(C)C)[nH]4)cc3)cc2)[nH]1 [cj-42, methyl ((1S)-1-(((2S)-2-(5-(4′-(2-((2S)-1-((2S)-2-((methoxycarbonyl)amino)-3-(1-methyl-1H-imidazol-4-yl)propanoyl)-2-pyrrolidinyl)-1H-imidazol-5-yl)-4-biphenylyl)-1H-imidazol-2-yl)-1-pyrrolidinyl)carbonyl)-2-methylpropyl)carbamate] | 0.001 to 0.999
4 | COC(=O)N[C@@H](Cc1cn(C)cn1)C(=O)N1CCC[C@H]1c1ncc(-c2ccc(-c3ccc(-c4cnc([C@@H]5CCCN5C(=O)[C@@H](NC(=O)OC)[C@@H](C)OC)[nH]4)cc3)cc2)[nH]1 [cj-43, methyl ((1S)-2-((2S)-2-(5-(4′-(2-((2S)-1-((2S,3R)-3-methoxy-2-((methoxycarbonyl)amino)butanoyl)-2-pyrrolidinyl)-1H-imidazol-5-yl)-4-biphenylyl)-1H-imidazol-2-yl)-1-pyrrolidinyl)-1-((1-methyl-1H-imidazol-4-yl)methyl)-2-oxoethyl)carbamate] | 0.001 to 0.999
5 | CCN(CC)[C@@H](C(=O)N1CCC[C@H]1c1ncc(-c2ccc(-c3ccc(-c4cnc([C@@H]5CCCN5C(=O)[C@H](Cc5cncn5C)NC(=O)OC)[nH]4)cc3)cc2)[nH]1)c1ccccc1 [cj-44, methyl ((1S)-2-((2S)-2-(5-(4′-(2-((2S)-1-((2R)-2-(diethylamino)-2-phenylacetyl)-2-pyrrolidinyl)-1H-imidazol-5-yl)-4-biphenylyl)-1H-imidazol-2-yl)-1-pyrrolidinyl)-1-((1-methyl-1H-imidazol-5-yl)methyl)-2-oxoethyl)carbamate] | 0.001 to 0.999
6 | COC(=O)N[C@@H](C)C(=O)N1CCC[C@H]1c1ncc(-c2ccc(-c3ccc(-c4cnc([C@@H]5CCCN5C(=O)[C@H](Cc5cncn5C)NC(=O)OC)[nH]4)cc3)cc2)[nH]1 [cj-45, methyl ((1S)-2-((2S)-2-(5-(4′-(2-((2S)-1-(N-(methoxycarbonyl)-L-alanyl)-2-pyrrolidinyl)-1H-imidazol-5-yl)-4-biphenylyl)-1H-imidazol-2-yl)-1-pyrrolidinyl)-1-((1-methyl-1H-imidazol-5-yl)methyl)-2-oxoethyl)carbamate] | 0.001 to 0.999
7 | COC(=O)N[C@@H](Cc1cncn1C)C(=O)N1CCC[C@H]1c1ncc(-c2ccc(-c3ccc(-c4cnc([C@@H]5CCCN5C(=O)[C@@H](NC(=O)OC)C(C)C)[nH]4)cc3)cc2)[nH]1 [cj-46, methyl ((1S)-1-(((2S)-2-(5-(4′-(2-((2S)-1-((2S)-2-((methoxycarbonyl)amino)-3-(1-methyl-1H-imidazol-5-yl)propanoyl)-2-pyrrolidinyl)-1H-imidazol-5-yl)-4-biphenylyl)-1H-imidazol-2-yl)-1-pyrrolidinyl)carbonyl)-2-methylpropyl)carbamate] | 0.001 to 0.999
8 | COC(=O)N[C@@H](Cc1cncn1C)C(=O)N1CCC[C@H]1c1ncc(-c2ccc(-c3ccc(-c4cnc([C@@H]5CCCN5C(=O)[C@@H](NC(=O)OC)[C@@H](C)OC)[nH]4)cc3)cc2)[nH]1 [cj-47, methyl ((1S)-2-((2S)-2-(5-(4′-(2-((2S)-1-((2S,3R)-3-methoxy-2-((methoxycarbonyl)amino)butanoyl)-2-pyrrolidinyl)-1H-imidazol-5-yl)-4-biphenylyl)-1H-imidazol-2-yl)-1-pyrrolidinyl)-1-((1-methyl-1H-imidazol-5-yl)methyl)-2-oxoethyl)carbamate] | 1 to 99
9 | COC(=O)N[C@@H](C)C(=O)N1CCC[C@H]1c1ncc(-c2ccc(-c3ccc(-c4cnc([C@@H]5CCCN5C(=O)[C@@H]5CC(=O)N5)[nH]4)cc3)cc2)[nH]1 [cj-48] | 100 to 999
10 | COC(=O)N[C@@H](C)C(=O)N1CCC[C@H]1c1ncc(-c2ccc(-c3ccc(-c4cnc([C@@H]5CCCN5C(=O)[C@@H]5CCN5C(=O)OC)[nH]4)cc3)cc2)[nH]1 [cj-49, methyl (2S)-2-(((2S)-2-(5-(4′-(2-((2S)-1-(N-(methoxycarbonyl)-L-alanyl)-2-pyrrolidinyl)-1H-imidazol-5-yl)-4-biphenylyl)-1H-imidazol-2-yl)-1-pyrrolidinyl)carbonyl)-1-azetidinecarboxylate] | 1 to 99
11 | CCN(CC)[C@@H](C(=O)N1CCC[C@H]1c1ncc(-c2ccc(-c3ccc(-c4cnc([C@@H]5CCCN5C(=O)[C@@H]5CCN5C(=O)OC)[nH]4)cc3)cc2)[nH]1)c1ccccc1 [cj-50, methyl (2S)-2-(((2S)-2-(5-(4′-(2-((2S)-1-((2R)-2-(diethylamino)-2-phenylacetyl)-2-pyrrolidinyl)-1H-imidazol-5-yl)-4-biphenylyl)-1H-imidazol-2-yl)-1-pyrrolidinyl)carbonyl)-1-azetidinecarboxylate] | 0.001 to 0.999
12 | CCN(CC)[C@@H](C(=O)N1CCC[C@H]1c1ncc(-c2ccc(-c3ccc(-c4cnc([C@@H]5CCCN5C(=O)C[C@H](C)NC(=O)OC)[nH]4)cc3)cc2)[nH]1)c1ccccc1 [cj-51, methyl ((1S)-3-((2S)-2-(5-(4′-(2-((2S)-1-((2R)-2-(diethylamino)-2-phenylacetyl)-2-pyrrolidinyl)-1H-imidazol-5-yl)-4-biphenylyl)-1H-imidazol-2-yl)-1-pyrrolidinyl)-1-methyl-3-oxopropyl)carbamate] | 0.001 to 0.999
13 | CCN(CC)[C@@H](C(=O)N1CCC[C@H]1c1ncc(-c2ccc(-c3ccc(-c4cnc([C@@H]5CCCN5C(=O)C[C@@H](NC(=O)OC)C(C)C)[nH]4)cc3)cc2)[nH]1)c1ccccc1 [cj-52, methyl ((1R)-3-((2S)-2-(5-(4′-(2-((2S)-1-((2R)-2-(diethylamino)-2-phenylacetyl)-2-pyrrolidinyl)-1H-imidazol-5-yl)-4-biphenylyl)-1H-imidazol-2-yl)-1-pyrrolidinyl)-1-isopropyl-3-oxopropyl)carbamate] | 0.001 to 0.999
14 | CCN(CC)[C@@H](C(=O)N1CCC[C@H]1c1ncc(-c2ccc(-c3ccc(-c4cnc([C@@H]5CCCN5C(=O)C[C@H](Cc5ccccc5)NC(=O)OC)[nH]4)cc3)cc2)[nH]1)c1ccccc1 [cj-53, methyl ((1S)-1-benzyl-3-((2S)-2-(5-(4′-(2-((2S)-1-((2R)-2-(diethylamino)-2-phenylacetyl)-2-pyrrolidinyl)-1H-imidazol-5-yl)-4-biphenylyl)-1H-imidazol-2-yl)-1-pyrrolidinyl)-3-oxopropyl)carbamate] | 0.001 to 0.999
15 | CCN(CC)[C@@H](C(=O)N1CCC[C@H]1c1ncc(-c2ccc(-c3ccc(-c4cnc([C@@H]5CCCN5C(=O)C[C@H](Cc5cccs5)NC(=O)OC)[nH]4)cc3)cc2)[nH]1)c1ccccc1 [cj-54, methyl ((1R)-3-((2S)-2-(5-(4′-(2-((2S)-1-((2R)-2-(diethylamino)-2-phenylacetyl)-2-pyrrolidinyl)-1H-imidazol-5-yl)-4-biphenylyl)-1H-imidazol-2-yl)-1-pyrrolidinyl)-3-oxo-1-(2-thienylmethyl)propyl)carbamate] | 0.001 to 0.999
16 | CCN(CC)[C@@H](C(=O)N1CCC[C@H]1c1ncc(-c2ccc(-c3ccc(-c4cnc([C@@H]5CCCN5C(=O)C[C@@H](Cc5ccsc5)NC(=O)OC)[nH]4)cc3)cc2)[nH]1)c1ccccc1 [cj-55, methyl ((1R)-3-((2S)-2-(5-(4′-(2-((2S)-1-((2R)-2-(diethylamino)-2-phenylacetyl)-2-pyrrolidinyl)-1H-imidazol-5-yl)-4-biphenylyl)-1H-imidazol-2-yl)-1-pyrrolidinyl)-3-oxo-1-(3-thienylmethyl)propyl)carbamate] | 0.001 to 0.999
17 | CCN(CC)[C@@H](C(=O)N1CCC[C@H]1c1ncc(-c2ccc(-c3ccc(-c4cnc([C@@H]5CCCN5C(=O)C[C@@H](Cc5cccs5)NC(=O)OC)[nH]4)cc3)cc2)[nH]1)c1ccccc1 [cj-56, methyl ((1S)-3-((2S)-2-(5-(4′-(2-((2S)-1-((2R)-2-(diethylamino)-2-phenylacetyl)-2-pyrrolidinyl)-1H-imidazol-5-yl)-4-biphenylyl)-1H-imidazol-2-yl)-1-pyrrolidinyl)-3-oxo-1-(2-thienylmethyl)propyl)carbamate] | 0.001 to 0.999
18 | CCN(CC)[C@@H](C(=O)N1CCC[C@H]1c1ncc(-c2ccc(-c3ccc(-c4cnc([C@@H]5CCCN5C(=O)[C@@H]5CC[C@H](NC(=O)OC)C5)[nH]4)cc3)cc2)[nH]1)c1ccccc1 [cj-57, methyl ((1S,3R)-3-(((2S)-2-(5-(4′-(2-((2S)-1-((2R)-2-(diethylamino)-2-phenylacetyl)-2-pyrrolidinyl)-1H-imidazol-5-yl)-4-biphenylyl)-1H-imidazol-2-yl)-1-pyrrolidinyl)carbonyl)cyclopentyl)carbamate] | 0.001 to 0.999
19 | CCN(CC)[C@@H](C(=O)N1CCC[C@H]1c1ncc(-c2ccc(-c3ccc(-c4cnc([C@@H]5CCCN5C(=O)C[C@@H](Cc5ccccc5)NC(=O)OC)[nH]4)cc3)cc2)[nH]1)c1ccccc1 [cj-58, methyl ((1R)-1-benzyl-3-((2S)-2-(5-(4′-(2-((2S)-1-((2R)-2-(diethylamino)-2-phenylacetyl)-2-pyrrolidinyl)-1H-imidazol-5-yl)-4-biphenylyl)-1H-imidazol-2-yl)-1-pyrrolidinyl)-3-oxopropyl)carbamate] | 0.001 to 0.999
